Measured values: patent US20230159510A1, “NOVEL PRMT5 INHIBITORS” (AMGEN INC., priority 2020, published 2023)
pIC50: −log10 of the molar value. Read-outs that look alike come from different tables or passages of the source.

Tests used:
HCT116 MTAP null cells = assay: HCT116 proliferation assay, MTAP null cells (CellTiter-Glo, 6 days); type: cell-based; details: 144 h, read-out: Protif_ HCT116-MTAP null IC50
How it was run: (§1)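 Cells were plated in RPMI 1640 with 10% fetal bovine serum and left overnight at 37° C and 5% CO2. Compound was then added as an 8- or 9-point 1:3 dilution series from a top concentration of 1 or 10 µM, alongside a DMSO-only control. Viability was read by luminescence.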

HCT116 WT cells = assay: HCT116 proliferation assay, WT cells (CellTiter-Glo, 6 days); type: cell-based; details: Homo sapiens, HCT-116, 144 h, read-out: Prolif_HCT116-WT IC50
How it was run: as §1

PRMT5/MEP50 = PRMT5/MEP50 (Homo sapiens, UniProt O14744); assay: MTase-Glo methyl transferase assay, Method A (Histone H4 peptide, 1 µM MTA, 24 h pre-incubation); type: biochemical; parameters: made in house; details: read-out: PRMT5 MTase Glo Ki (nM, Meth. A)
Chain of PRMT5/MEP50 (O14744 whole entry): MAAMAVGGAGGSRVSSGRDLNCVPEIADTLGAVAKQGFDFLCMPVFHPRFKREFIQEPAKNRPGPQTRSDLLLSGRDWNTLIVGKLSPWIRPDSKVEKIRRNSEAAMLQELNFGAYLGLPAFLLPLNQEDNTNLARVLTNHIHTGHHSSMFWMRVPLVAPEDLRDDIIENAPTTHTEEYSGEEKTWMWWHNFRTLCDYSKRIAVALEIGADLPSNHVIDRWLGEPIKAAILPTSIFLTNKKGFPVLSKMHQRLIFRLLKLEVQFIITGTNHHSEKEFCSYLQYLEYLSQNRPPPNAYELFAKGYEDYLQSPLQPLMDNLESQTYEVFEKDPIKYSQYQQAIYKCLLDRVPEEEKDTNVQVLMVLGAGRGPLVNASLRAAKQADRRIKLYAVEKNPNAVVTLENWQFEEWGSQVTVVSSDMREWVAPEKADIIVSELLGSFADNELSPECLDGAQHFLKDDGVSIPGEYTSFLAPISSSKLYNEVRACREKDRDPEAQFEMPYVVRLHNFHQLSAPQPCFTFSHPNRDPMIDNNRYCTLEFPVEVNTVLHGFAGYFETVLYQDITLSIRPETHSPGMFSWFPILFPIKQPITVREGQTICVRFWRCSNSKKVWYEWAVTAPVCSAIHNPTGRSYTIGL
Chain of PRMT5/MEP50 (Q9BQA1 whole entry partner): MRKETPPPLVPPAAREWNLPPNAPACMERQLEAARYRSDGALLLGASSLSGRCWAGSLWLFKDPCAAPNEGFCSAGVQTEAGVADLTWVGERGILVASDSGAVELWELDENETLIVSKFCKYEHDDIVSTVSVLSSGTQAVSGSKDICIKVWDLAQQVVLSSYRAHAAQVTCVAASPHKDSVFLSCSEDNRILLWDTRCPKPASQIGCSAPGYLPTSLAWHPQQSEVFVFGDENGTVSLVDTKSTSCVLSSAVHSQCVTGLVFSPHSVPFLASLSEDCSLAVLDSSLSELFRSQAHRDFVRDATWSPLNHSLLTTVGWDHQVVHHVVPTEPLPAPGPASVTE
How it was run: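 PRMT5/MEP50 (10 nM) pre-incubated 24 h with compound, 5 µM SAM and 1 µM MTA, then reaction started with 1 µM Histone H4 (1-21) peptide and run 2 h at room temperature in Tris pH 8.0 buffer. SAH formed detected by MTase-Glo luminescence; IC50 and KI from dose-response curves.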

| pIC50 (HCT116 MTAP null cells; HCT116-MTAP null) | pIC50 (HCT116 WT cells) | Ki (PRMT5/MEP50) | Structure (SMILES) | pIC50 (HCT116 MTAP null cells) |
| --- | --- | --- | --- | --- |
| 6.06 | < 5.00 | 1.22 nM | Cc1cc2cc(C(=O)N(Cc3cccnc3)Cc3ccc(C(F)(F)F)cn3)ccc2nc1N [Example 301, 2-amino-3-methyl-N-(3-pyridinylmethyl)-N-((5-(trifluoromethyl)-2-pyridinyl)methyl)-6-quinolinecarboxamide] |  |
| 6.44 | < 5.00 | 0.3 nM | Cc1cc2cc(C(=O)N(Cc3ccccn3)Cc3ccc(C(F)(F)F)cn3)ccc2nc1N [Example 302, 2-amino-3-methyl-N-(2-pyridinylmethyl)-N-((5-(trifluoromethyl)-2-pyridinyl)methyl)-6-quinolinecarboxamide] |  |
| 7.49 | 6.22 | 0.01 nM | Cc1cc2cc(C(=O)N(Cc3ccc(C(F)(F)F)cn3)Cc3ncccc3Cl)ccc2nc1N [Example 303, 2-amino-N-((3-chloro-2-pyridinyl)methyl)-3-methyl-N-((5-(trifluoromethyl)-2-pyridinyl)methyl)-6-quinolinecarboxamide] |  |
| 6.74 | 5.39 | 0.11 nM | Cc1cc2cc(C(=O)N(Cc3ccc(C(F)(F)F)cn3)Cc3ncc(Cl)cc3F)ccc2nc1N [Example 304, 2-amino-N-((5-chloro-3-fluoro-2-pyridinyl)methyl)-3-methyl-N-((5-(trifluoromethyl)-2-pyridinyl)methyl)-6-quinolinecarboxamide] |  |
| 6.57 | 5.06 | 15.1 nM | Cc1cc2cc(C(=O)N(Cc3ccc(C(F)(F)F)cn3)Cc3cnc(N)s3)ccc2nc1N [Example 305, 2-amino-N-((2-amino-1,3-thiazol-5-yl)methyl)-3-methyl-N-((5-(trifluoromethyl)-2-pyridinyl)methyl)-6-quinolinecarboxamide] |  |
| 6.40 | < 5.00 | 0.76 nM | Cc1cc2cc(C(=O)N(Cc3ccc(C(F)(F)F)cn3)Cc3ncn(C)n3)ccc2nc1N [Example 306, 2-amino-3-methyl-N-((1-methyl-1H-1,2,4-triazol-3-yl)methyl)-N-((5-(trifluoromethyl)-2-pyridinyl)methyl)-6-quinolinecarboxamide] |  |
| 6.46 | 5.12 | 1.88 nM | Cc1cc2cc(C(=O)N(Cc3ccc(C#N)cn3)CC3CC3)c(F)cc2nc1N [Example 307, 2-amino-N-((5-cyano-2-pyridinyl)methyl)-N-(cyclopropylmethyl)-7-fluoro-3-methyl-6-quinolinecarboxamide] |  |
| 6.21 | < 5.00 | 2.34 nM | Cc1cc2cc(C(=O)N(Cc3ncc(C(F)(F)F)cc3F)CC(C)C)ccc2nc1N [Example 308, 2-amino-N-((3-fluoro-5-(trifluoromethyl)-2-pyridinyl)methyl)-3-methyl-N-(2-methylpropyl)-6-quinolinecarboxamide] |  |
| 6.19 | 5.13 | 2.35 nM | Cc1cc2cc(C(=O)N(Cc3ccc(C(F)(F)F)cn3)[C@H](C)C3CC3)ccc2nc1N [Example 309, 2-amino-N-((1R)-1-cyclopropylethyl)-3-methyl-N-((5-(trifluoromethyl)-2-pyridinyl)methyl)-6-quinolinecarboxamide] |  |
| 7.17 | 5.80 | 0.29 nM | Cc1cc2cc(C(=O)N(Cc3ccc(C(F)(F)F)cn3)Cc3ncccc3F)c(F)cc2nc1N [Example 310, 2-amino-7-fluoro-N-((3-fluoro-2-pyridinyl)methyl)-3-methyl-N-((5-(trifluoromethyl)-2-pyridinyl)methyl)-6-quinolinecarboxamide] |  |
| 6.79 | 5.55 | 0.21 nM | Cc1cc2cc(C(=O)N(Cc3ccc(C(F)(F)F)cn3)CC3CC3)c(F)cc2nc1N [Example 311, 2-amino-N-(cyclopropylmethyl)-7-fluoro-3-methyl-N-((5-(trifluoromethyl)-2-pyridinyl)methyl)-6-quinolinecarboxamide] |  |
| 6.09 | < 5.00 | 0.36 nM | Cc1cc2cc(C(=O)N(Cc3ccc(C(F)(F)F)cn3)Cc3ncccc3F)ncc2nc1N [Example 312, 2-amino-N-((3-fluoro-2-pyridinyl)methyl)-3-methyl-N-((5-(trifluoromethyl)-2-pyridinyl)methyl)-1,7-naphthyridine-6-carboxamide] |  |
| 6.74 | 5.36 | 0.25 nM | Cc1cc2cc(C(=O)N(Cc3ccc(C(F)(F)F)cn3)Cc3cnccn3)c(F)cc2nc1N [Example 315, 2-amino-7-fluoro-3-methyl-N-(2-pyrazinylmethyl)-N-((5-(trifluoromethyl)-2-pyridinyl)methyl)-6-quinolinecarboxamide] |  |
| 6.27 | 4.99 | 1.03 nM | Cc1cc(CN(Cc2ccc(C(F)(F)F)cn2)C(=O)c2cc3cc(C)c(N)nc3cc2F)no1 [Example 316, 2-amino-7-fluoro-3-methyl-N-((5-methyl-1,2-oxazol-3-yl)methyl)-N-((5-(trifluoromethyl)-2-pyridinyl)methyl)-6-quinolinecarboxamide] |  |
| 6.21 | < 5.00 | 0.56 nM | Nc1nc2ccc(C(=O)N(Cc3ccc(C(F)(F)F)cn3)Cc3ncccn3)cc2cc1Br [Example 317, 2-amino-3-bromo-N-(2-pyrimidinylmethyl)-N-((5-(trifluoromethyl)-2-pyridinyl)methyl)-6-quinolinecarboxamide] |  |
| 6.02 | < 5.00 | 1.91 nM | CC(C)CN(Cc1ccc(C(F)(F)F)cn1)C(=O)c1ccc2nc(N)c(Br)cc2c1 [Example 318, 2-amino-3-bromo-N-(2-methylpropyl)-N-((5-(trifluoromethyl)-2-pyridinyl)methyl)-6-quinolinecarboxamide] |  |
| 6.54 | < 5.00 | 0.15 nM | Nc1nc2ncc(C(=O)N(Cc3ccc(C(F)(F)F)cn3)Cc3ncccc3F)cc2cc1Br [Example 321, 7-amino-6-bromo-N-((3-fluoro-2-pyridinyl)methyl)-N-((5-(trifluoromethyl)-2-pyridinyl)methyl)-1,8-naphthyridine-3-carboxamide] |  |
| 6.41 | < 5.00 | 1.09 nM | Cc1cc2cc(C(=O)N(Cc3ccc(C(F)(F)F)nc3)Cc3ncccc3F)ccc2nc1N [Example 322, 2-amino-N-((3-fluoro-2-pyridinyl)methyl)-3-methyl-N-((6-(trifluoromethyl)-3-pyridinyl)methyl)-6-quinolinecarboxamide] |  |
| 6.80 | 5.30 | 0.36 nM | Cc1cc2cc(C(=O)N(Cc3ccc(C(F)(F)F)cn3)[C@@H]3CCCc4ccncc43)ccc2nc1N [Example 323, 2-amino-3-methyl-N-((8R)-5,6,7,8-tetrahydro-8-isoquinolinyl)-N-((5-(trifluoromethyl)-2-pyridinyl)methyl)-6-quinolinecarboxamide] |  |
| 6.07 | < 5.00 | 2 nM | Cc1cc2cc(C(=O)N(Cc3ccc(C(F)F)cn3)CC(C)C)ccc2nc1N [Example 324, 2-amino-N-((5-(difluoromethyl)-2-pyridinyl)methyl)-3-methyl-N-(2-methylpropyl)-6-quinolinecarboxamide] |  |
| 6.17 | 5.21 | 2.76 nM | Cc1cc2cc(C(=O)N(Cc3ccc(C(F)(F)F)cn3)CC3CC3)ccc2nc1N [Example 325, 2-amino-N-(cyclopropylmethyl)-3-methyl-N-((5-(trifluoromethyl)-2-pyridinyl)methyl)-6-quinolinecarboxamide] |  |
| 6.90 | 5.36 | 0.16 nM | Cc1cc2cc(C(=O)N(Cc3ccc(C(F)F)cn3)Cc3ncccc3F)ccc2nc1N [Example 326, 2-amino-N-((5-(difluoromethyl)-2-pyridinyl)methyl)-N-((3-fluoro-2-pyridinyl)methyl)-3-methyl-6-quinolinecarboxamide] |  |
| 6.52 | 5.06 | 0.35 nM | Cc1cc2cc(C(=O)N(Cc3ccc(C#N)cn3)Cc3ncccc3F)ccc2nc1N [Example 327, 2-amino-N-((5-cyano-2-pyridinyl)methyl)-N-((3-fluoro-2-pyridinyl)methyl)-3-methyl-6-quinolinecarboxamide] |  |
| 6.75 | 5.33 | 0.41 nM | Cc1cc2cc(C(=O)N(Cc3ccc(C(F)(F)F)cc3)Cc3ncccc3F)ccc2nc1N [Example 328, 2-amino-N-((3-fluoro-2-pyridinyl)methyl)-3-methyl-N-(4-(trifluoromethyl)benzyl)-6-quinolinecarboxamide] |  |

| Structure (SMILES) | pIC50 (HCT116 MTAP null cells; HCT116-MTAP null) | pIC50 (HCT116 WT cells) | Ki (PRMT5/MEP50) | pIC50 (HCT116 MTAP null cells) |
| --- | --- | --- | --- | --- |
| Cc1cc2cc(C(=O)N(Cc3ccc(C(F)(F)F)cn3)CC(C)C)ncc2nc1N [Example 313, 2-amino-3-methyl-N-(2-methylpropyl)-N-((5-(trifluoromethyl)-2-pyridinyl)methyl)-1,7-naphthyridine-6-carboxamide] |  | < 5.00 | 0.98 nM | 6.04 |
| Cc1cc2cc(C(=O)N(Cc3ccc(C(F)(F)F)cn3)CC(C)C)c(F)cc2nc1N [Example 314, 2-amino-7-fluoro-3-methyl-N-(2-methylpropyl)-N-((5-(trifluoromethyl)-2-pyridinyl)methyl)-6-quinolinecarboxamide] |  | 5.29 | 0.35 nM | 6.66 |
| Cc1cc2cc(C(=O)N(Cc3ccc(C(F)(F)F)cn3)Cc3ncccc3F)ccc2nc1N [Example 320, 2-amino-N-((3-fluoro-2-pyridinyl)methyl)-3-methyl-N-((5-(trifluoromethyl)-2-pyridinyl)methyl)-6-quinolinecarboxamide] |  | 5.46 | 0.28 nM | 7.10 |
